Experiments:
[1] = test system: dialysis patients with indwelling large bore catheter; experiment: Prevention or reduction of vascular access dysfunction after insertion of an indwelling catheter into the vein of a patient; type: in vivo; settings: daily dose of 0.75 to 20 mg, 3 month treatment, observation period of 6 months
Procedure: A5. Prevention or Reduction of Vascular Access Dysfunction in Association with the Insertion of an Indwelling Catheter into the Vein of a Patient
One hundred fifty prospective dialysis patients, who undergo successful insertion of an indwelling, large bore catheter, into a vein are selected for the study. […] In addition, patients may also be given a calcium antagonist, nitrates and/or anti-platelet agents. These drugs are administered for 3 consecutive months following catheter insertion.

[2] = test system: New Zealand White rabbit iliac arteries (balloon injury and stent); experiment: Inhibition of restenosis at 28 days in the rabbit iliac stent model; type: in vivo
Procedure: A.2 Inhibition of Restenosis at 28 Days in the Rabbit Iliac Stent Model
A combined angioplasty and stenting procedure is performed in New Zealand White rabbit iliac arteries. Iliac artery balloon injury is performed by inflating a 3.0 x 9.0 mm angioplasty balloon in the mid-portion of the artery followed by “pull-back” of the catheter for 1 balloon length. Balloon injury is repeated 2 times, and a 3.0×12 mm stent is deployed at 6 atm for 30 seconds in the iliac artery. Balloon injury and stent placement is then performed on the contralateral iliac artery in the same manner. A post-stent deployment angiogram is performed. All animals receive oral aspirin 40 mg/day daily as anti-platelet therapy and are fed standard low-cholesterol rabbit chow. Twenty-eight days after stenting, animals are anesthetized and euthanized and the arterial tree is perfused at 100 mmHg with lactated Ringer's for several minutes, then perfused with 10% formalin at 100 mmHg for 15 minutes. The vascular section between the distal aorta and the proximal femoral arteries is excised and cleaned of periadventitial tissue. The stented section of artery is embedded in plastic and sections are taken from the proximal, middle, and distal portions of each stent. All sections are stained with hematoxylin-eosin and Movat pentachrome stains. Computerized planimetry is performed to determine the area of the internal elastic lamina (IEL), external elastic lamina (EEL) and lumen. The neointima and neointimal thickness is measured both at and between the stent struts. The vessel area is measured as the area within the EEL. Data are expressed as mean±SEM. Statistical analysis of the histologic data is accomplished using analysis of variance (ANOVA) due to the fact that two stented arteries are measured per animal with a mean generated per animal. A P<0.05 is considered statistically significant.
A compound of formula I, e.g. 40-O-(2-hydroxyethyl)-rapamycin, is administered orally by gavage at a loading dose of 1.5 mg/kg one day prior to stenting, then dosed at 0.75 mg/kg/day from the day of stenting until day 27 post-stenting. In this model, the treatment with the compounds of formula I results in a marked reduction in the extent of restenotic lesion formation: for example, the treatment with 40-O-(2-hydroxyethyl)-rapamycin produces a significant (P<0.03) reduction in neointimal thickness (40% reduction), neointimal area (24% reduction), and percent arterial stenosis (26% reduction) with a significant 32% increase in lumen area. There is extensive neointimal formation in placebo-treated animals at 28 days, with the lesions consisting of abundant smooth muscle cells in proteoglycan/collagen matrix and apparent full endothelial healing.

[3] = test system: balloon injured rat carotid arteries; experiment: Inhibition of late neointimal lesion formation in the 28 day rat carotid artery balloon injury model; type: in vivo; settings: for percent inhibition of neointimal lesion formation: 28 days post-balloon injury
Procedure: A1. Inhibition of Late Neointimal Lesion Formation in the 28 Day Rat Carotid Artery Balloon Injury Model
Compounds of formula I are tested in the following rat model.
Rats are dosed orally with placebo or a compound of formula I. Daily dosing starts 3 days prior to surgery and continues for 31 days. Rat carotid arteries are balloon injured using a method described by Clowes et al. Lab. Invest. 1983;49;208-215. Following sacrifice at 28 days post-balloon injury, carotid arteries are removed and processed for histologic and morphometric evaluation. […] For example for 40-O-(2-hydroxyethyl)-rapamycin administered at 0.5, 1.0, and 2.0 mg/kg, the percent inhibition is similar at all three doses: inhibition is 31% at the lowest dose (0.5 mg/kg) and 39% at the highest dose (2.0 mg/kg). Compounds of formula I, e.g. 40-O-(2-hydroxyethyl)-rapamycin, have the beneficial effect to inhibit lesions at 4 weeks post-ballooning.

[4] = test system: ballooned carotid of Sprague Dawley rats; experiment: Inhibition of restenosis at 14 days in the rat carotid stent model (perivascular local delivery); type: in vivo, Sprague Dawley rat; settings: administered locally (perivascular, osmotic pump) at 10 to 200 μg/day
Procedure: A.3 Inhibition of Restenosis at 14 Days in the Rat Carotid Stent Model
Male Sprague Dawley rats weighing […] are housed individually and allowed to acclimate prior to surgery. All animals receive standard rat chow and water ad libitum. Group size is 12 animals per group.
The drug(s) administration is perivascular. A segment of ballooned carotid is encircled with a 1 cm length of silastic tubing (0.25 inch inside diameter, 0.47 inch outside diameter) to which is attached a catheter which feeds into an osmotic pump containing either compound or vehicle. This delivery system provides continuous, local delivery to the adventitia of the wrapped portion of vessel. Local drug(s) administration ranges between 5 μg and 10 mg, locally per day, depending on the solubility characteristics of the individual compounds. […]
Animals are killed at 14 days post-balloon injury. […] Animals are killed by administration of an overdose of ketamine and rompun, the osmotic pumps are recovered and the volume of remaining content is recorded to ensure that pump failure has not occurred.
Carotid arteries are excised and immersion fixed, then transferred to Ringer's solution. […] The intimal lesion area and the medial area are determined by measurement of the internal elastic lamina, the external elastic lamina and the vessel/lumen interface.

[5] = Release of 40-O-(2-hydroxyethyl)-rapamycin from coated stents; type: physicochemical; settings: PBS pH 7.4 or PEG/water 40/60 v/v, 37° C., solutions changed daily; stable = less than 10% of variation of the drug release
Procedure: Four 2 cm pieces of coated stents as described above are placed into 100 ml of phosphate buffer solution (PBS) having a pH of 7.4. Another 4 pieces from each series are placed into 100 ml polyethylene glycol (PEG)/water solution (40/60 v/v, MW of PEG=400). The stent pieces are incubated at 37° C. in a shaker. The buffer and PEG solutions are changed daily and different assays are performed on the solution to determine the released 40-O-(2-hydroxyethyl)-rapamycin concentrations. Such assays can show a stable release of 40-O-(2-hydroxyethyl)-rapamycin from coated stents for more than 45 days. By the term “stable release of 40-O-(2-hydroxyethyl)-rapamycin” is meant less than 10% of variation of the drug release. Controlled release techniques used by a person skilled in the art allow an unexpected easy adaptation of the required drug release rate. Thus, by selecting appropriate amounts of reactants in the coating mixture it is possible to easily control the bioeffectiveness of the rapamycin or rapamycin derivastive coated stents.

[6] = oral loading dose 1.5 mg/kg, then 0.75 mg/kg/day to day 27, 28 days after stenting, P<0.03

Compound: CO[C@H]1C[C@@H]2CC[C@@H](C)[C@@](O)(O2)C(=O)C(=O)N2CCCC[C@H]2C(=O)O[C@H]([C@H](C)C[C@@H]2CC[C@@H](OCCO)[C@H](OC)C2)CC(=O)[C@H](C)/C=C(\C)[C@@H](O)[C@@H](OC)C(=O)[C@H](C)C[C@H](C)/C=C/C=C/C=C/1C [40-O-(2-hydroxyethyl)-rapamycin]
- prevention or reduction of vascular access dysfunction after catheter insertion [1]: demonstrate the efficacy
- histology of the intima in arterial segments ([2]; majority of arterial segments, 28 days after stenting): the intima is well healed
- endothelialization of stented arteries (scanning electron microscopic analysis) ([2]; n=4 arteries, oral 1.5 mg/kg loading, 0.75 mg/kg/day, 28 days): 84%
- increase in lumen area ([2]; oral loading dose 1.5 mg/kg, then 0.75 mg/kg/day to day 27, 28 days after stenting): 32%
- reduction in neointimal area [2, 6]: 24%
- reduction in neointimal thickness [2, 6]: 40%
- reduction in percent arterial stenosis [2, 6]: 26%
- percent inhibition of neointimal lesion formation ([3]; 0.5 mg/kg oral daily): 31%
- percent inhibition of neointimal lesion formation ([3]; 2.0 mg/kg oral daily): 39%
- neointimal lesion formation at 28 days following balloon injury ([3]; oral dose of from 0.5 to 2.0 mg/kg): significantly reduce neointimal lesion formation
- neointimal lesion formation at 14 days post ballooning [4]: reduces neointimal lesion formation
- duration of stable release from coated stents [5]: more than 45 days

Reference: patent publication US20030170287A1, “Drug delivery systems for the prevention and treatment of vascular diseases” (priority 2002, published 2003)
